Assay results published in paper PMC3828397, “Characterization of PfTrxR inhibitors using antimalarial assays and in silico techniques” (Chemistry Central Journal, 2013).
Like-named read-outs stand apart in the source and are kept apart here.

What was measured:
[1] = tested on: P. falciparum chloroquine sensitive (D6, Sierra Leone) strain; test: In vitro antimalarial assay (SYBR green), D6 strain; type: cell-based, Plasmodium falciparum
[2] = tested on: P. falciparum chloroquine resistant (W2, IndoChina) strain; test: In vitro antimalarial assay (SYBR green), W2 strain; type: cell-based, Plasmodium falciparum
[3] = tested on: P. falciparum CQ-sensitive (D6) and CQ-resistant (W2) strains; test: In vitro antimalarial assay, statements covering both strains; type: cell-based, Plasmodium falciparum; conditions: for IC50: Plasmodium falciparum, strain not given, read-out: antimalarial activity IC50 (abstract)
[4] = tested on: Human erythrocytes; test: ROS assay in DCFDA loaded erythrocytes; type: cell-based
[5] = tested on: PfTrxR; conditions: read-out: Pf TrxR IC50; cited from earlier work
[6] = tested on: 3T3 cells; test: Cytotoxicity assay (AlamarBlue); type: cell-based
[7] = tested on: hTrxR; conditions: read-out: Exptl. IC50, hTrxR; cited from earlier work
[8] = Plasmodium falciparum, D6, read-out: Pf (D6) CQ sensitive IC50
[9] = Plasmodium falciparum, W2, read-out: Pf (W2) CQ resistance IC50
[10] = against the two strains of P. falciparum
[11] = test compounds 50 μM, DCFDA fluorescence monitored for 120 min
[12] = Plasmodium falciparum, D6 clone, mean ± S.D. of triplicate observations, read-out: Pf (D6) CQ sensitive IC50
[13] = Plasmodium falciparum, W2, W2 clone, mean ± S.D. of triplicate observations, read-out: Pf (W2) CQ resistance IC50
[14] = Mus musculus, NIH3T3, 3T3 cells, AlamarBlue, NC: no cytotoxicity up to concentration much higher than the antiplasmodial concentration, read-out: 3T3 IC50

| Compound | IC50 [1, 8] [µM] | IC50 [2, 9] [µM] | IC50 [3] [µM] | antimalarial activity in words [3, 10] | intraerythrocytic formation of ROS (oxidative stress) [4, 11] | IC50 [1, 12] [µM] | IC50 [2, 13] [µM] | IC50 ([2]; W2 clone, mean ± S.D. of triplicate observations, read-out: Pf (W2) CQ resistance IC50) [µM] | IC50 [5] [µM] | IC50 [6, 14] [µM] | intraerythrocytic formation of ROS (oxidative stress) [4] | IC50 ([6]; Mus musculus, NIH3T3, read-out: 3T3 IC50) [µM] | antimalarial activity in words [3] | IC50 [7] [µM] | IC50 ([1]; read-out: Pf (D6) CQ sensitive IC50) [µM] | IC50 ([6]; read-out: 3T3 IC50) [µM] |
| --- | --- | --- | --- | --- | --- | --- | --- | --- | --- | --- | --- | --- | --- | --- | --- | --- |
| CCN(CC)CCCC(C)Nc1ccnc2cc(Cl)ccc12 (centres unmarked) [CQ, chloroquine] | 0.055 ± 0.006 | 0.44 ± 0.045 | – | – | – | – | – | – | – | – | – | – | – | – | – | – |
| O=C1C=CC(=O)c2ccccc21 [1,4-NQ, 1,4-napthoquinone] | – | – | < 20 | most active | significant increase | 8.9 ± 2.3 | < 20 | 16.7 ± 3.7 | 0.75 | 38.5 ± 0.76 | – | – | – | – | – | – |
| CN(C)CCC(=O)c1ccccc1 [3-DAP, 3-dimethylaminopropiophenone] | > 100 | > 100 | – | inactive | – | – | – | – | 15.4 | – | did not cause the production of ROS | > 100 | – | – | – | – |
| CC1=CC(=O)c2ccccc2C1=O [MD, menadione] | – | – | < 20 | moderately active | significant increase | 18.5 ± 1.9 | 28.3 ± 5.6 | – | 1.6 | 70.5 ± 3.69 | – | – | – | – | – | – |
| 4-nitrobenzothiadiazole [4-NBT] | – | – | – | – | – | – | – | – | 2 | – | significant increase | – | most active | 50 | 8.3 ± 2.1 | 80 ± 1.15 |
